Measured values published in patent US9988400B2 (Genentech, Inc., priority 2013, dated 2018).

Target: T1, HEK cells stably transfected with tetracycline inducible hNR1 and hNR2A (Homo sapiens, UniProt Q05586+Q12879)
T1 construct: expressed in transfected cells; host or cells: HEK cells, stably transfected, tetracycline/doxycycline inducible
Assay: Assay 1: Cell-Based Assay, cytosolic calcium response to positive allosteric modulators (with 30 μM glycine and 300 nM L-glutamate, EC30)
Details: for EC50: cytosolic calcium response, with 30 μM glycine and 300 nM L-glutamate (EC30), — = no plateau was reached; for Max %: responses scaled relative to 100 μM L-glutamate maximal response (100%) and 0 μM L-glutamate (0%)
In short: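 Cells induced 24 h with 7.5 μg mL^−1 doxycycline plus 500 μM (+)-ketamine, loaded 60 min at 37 °C with calcium dye in Mg-free HBSS (1.8 mM Ca, probenecid, 10 μM (+)-ketamine, pH 7.15). Peak RFU over 5 min after compound addition, scaled to 100 μM L-glutamate (100%) and 0 μM (0%); four-parameter Hill fit for EC50, max % if no plateau.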

T1 sequence (Q12879 23-1464, other chains not shown): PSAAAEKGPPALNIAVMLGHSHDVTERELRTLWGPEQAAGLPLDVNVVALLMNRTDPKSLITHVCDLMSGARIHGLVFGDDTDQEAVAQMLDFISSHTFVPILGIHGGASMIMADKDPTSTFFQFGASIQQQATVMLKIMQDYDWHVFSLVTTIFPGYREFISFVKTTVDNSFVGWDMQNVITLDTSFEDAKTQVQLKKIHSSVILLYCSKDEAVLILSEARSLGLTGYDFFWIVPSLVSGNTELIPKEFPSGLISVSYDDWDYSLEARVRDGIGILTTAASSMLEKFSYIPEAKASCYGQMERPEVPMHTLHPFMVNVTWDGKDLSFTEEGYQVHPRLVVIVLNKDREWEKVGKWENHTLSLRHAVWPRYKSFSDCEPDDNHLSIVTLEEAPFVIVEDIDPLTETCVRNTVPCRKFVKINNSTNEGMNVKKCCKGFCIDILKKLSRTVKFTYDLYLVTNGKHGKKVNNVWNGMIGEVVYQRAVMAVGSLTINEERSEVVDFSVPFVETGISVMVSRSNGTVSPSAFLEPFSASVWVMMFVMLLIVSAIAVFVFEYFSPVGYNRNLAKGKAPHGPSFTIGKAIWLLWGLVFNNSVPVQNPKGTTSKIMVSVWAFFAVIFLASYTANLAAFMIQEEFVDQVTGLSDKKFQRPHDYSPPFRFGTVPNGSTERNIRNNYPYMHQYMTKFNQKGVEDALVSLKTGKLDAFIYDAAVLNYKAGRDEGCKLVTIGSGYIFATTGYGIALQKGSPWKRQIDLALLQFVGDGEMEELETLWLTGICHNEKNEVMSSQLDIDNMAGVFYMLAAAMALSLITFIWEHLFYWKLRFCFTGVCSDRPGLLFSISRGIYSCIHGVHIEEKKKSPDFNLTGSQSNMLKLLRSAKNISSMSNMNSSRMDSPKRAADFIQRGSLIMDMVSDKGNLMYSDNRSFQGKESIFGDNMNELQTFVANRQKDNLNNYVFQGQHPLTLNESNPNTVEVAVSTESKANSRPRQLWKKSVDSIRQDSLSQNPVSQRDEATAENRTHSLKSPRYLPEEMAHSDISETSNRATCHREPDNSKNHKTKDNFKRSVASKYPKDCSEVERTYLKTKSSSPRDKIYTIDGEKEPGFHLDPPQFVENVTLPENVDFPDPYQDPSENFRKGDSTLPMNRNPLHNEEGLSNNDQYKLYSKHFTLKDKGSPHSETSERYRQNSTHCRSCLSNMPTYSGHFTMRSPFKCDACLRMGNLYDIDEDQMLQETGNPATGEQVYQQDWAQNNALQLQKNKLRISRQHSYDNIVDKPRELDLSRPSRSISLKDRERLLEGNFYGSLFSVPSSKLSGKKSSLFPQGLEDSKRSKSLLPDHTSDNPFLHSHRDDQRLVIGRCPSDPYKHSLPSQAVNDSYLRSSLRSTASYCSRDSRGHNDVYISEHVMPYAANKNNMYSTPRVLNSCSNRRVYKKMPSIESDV

| SMILES | EC50 (Table 3) [µM] | EC50 (Table 2) [µM] | Max % (Table 2) [%] |
| --- | --- | --- | --- |
| Cc1sc2nc(Cc3cccc(C#N)c3F)cc(=O)n2c1-c1ncco1 [compound 3, 2-fluoro-3-[(2-methyl-3-oxazol-2-yl-5-oxo-thiazolo[3,2-a]pyrimidin-7-yl)methyl]benzonitrile] | 10.9 | – | – |
| Cc1sc2nc(Cn3nc(C(F)(F)F)cc3Cl)cc(=O)n2c1/C=C/C(N)=O [compound 264, (E)-3-[7-[[5-chloro-3-(trifluoromethyl)pyrazol-1-yl]methyl]-2-methyl-5-oxo-thiazolo[3,2-a]pyrimidin-3-yl]prop-2-enamide] | 5.09 | – | – |
| Cc1sc2nc(Cn3nc(C(F)(F)F)cc3Cl)cc(=O)n2c1-c1cccnc1F [compound 157, 7-[[5-chloro-3-(trifluoromethyl)pyrazol-1-yl]methyl]-3-(2-fluoro-3-pyridyl)-2-methyl-thiazolo[3,2-a]pyrimidin-5-one] | 13 | – | – |
| Cc1sc2nc(Cn3nc(C(F)(F)F)cc3Cl)cc(=O)n2c1C(C)C#N (stereo not drawn) [Example 251A] | 2.62 | – | – |
| CCNC(=O)c1c(C(F)(F)F)sc2nc(Cc3cccc(C(F)F)c3F)cc(=O)n12 [compound 42, 7-[[3-(difluoromethyl)-2-fluoro-phenyl]methyl]-N-ethyl-5-oxo-2-(trifluoromethyl)thiazolo[3,2-a]pyrimidine-3-carboxamide] | 1.57 | – | – |
| Cc1sc2nc(Cn3nc([N+](=O)[O-])cc3Cl)cc(=O)n2c1Br [compound 246, 3-bromo-7-[(5-chloro-3-nitro-pyrazol-1-yl)methyl]-2-methyl-thiazolo[3,2-a]pyrimidin-5-one] | 0.0999 | – | – |
| CCNC(=O)c1c(C(F)(F)F)sc2nc(Cn3nc(C(F)(F)F)cc3C3CC3)cc(=O)n12 [Example 16.3, 7-((5-cyclopropyl-3-(trifluoromethyl)-1H-pyrazol-1-yl)methyl)-N-ethyl-5-oxo-2-(trifluoromethyl)-5H-thiazolo[3,2-a]pyrimidine-3-carboxamide] | – | 1.4 | 160 |
| CCNC(=O)c1c(C)sc2nc(Cc3cccc(C(F)(F)F)c3F)c(F)c(=O)n12 [compound 13, N-ethyl-6-fluoro-7-[[2-fluoro-3-(trifluoromethyl)phenyl]methyl]-2-methyl-5-oxo-thiazolo[3,2-a]pyrimidine-3-carboxamide] | 0.858 | – | – |
| CCNC(=O)c1c(C)sc2nc(Cc3cc(C#N)ccc3CC)cc(=O)n12 [Example 21.64, 7-(5-cyano-2-ethylbenzyl)-N-ethyl-2-methyl-5-oxo-5H-thiazolo[3,2-a]pyrimidine-3-carboxamide] | – | – | 120 |
| Cc1sc2nc(Cc3nc(C(F)(F)F)cs3)cc(=O)n2c1C1CC1CO (stereo not drawn) [compound 24, 3-[2-(Hydroxymethyl)cyclopropyl]-2-methyl-7-[[4-(trifluoromethyl)thiazol-2-yl]methyl]thiazolo[3,2-a]pyrimidin-5-one] | 1.33 | – | – |
| CC1CC1c1c(C(F)(F)F)sc2nc(Cn3nc(Cl)cc3C(F)(F)F)cc(=O)n12 (stereo not drawn) [compound 200, 7-[[3-chloro-5-(trifluoromethyl)pyrazol-1-yl]methyl]-3-(2-methylcyclopropyl)-2-(trifluoromethyl)thiazolo[3,2-a]pyrimidin-5-one] | 3.13 | – | – |
| CNC(=O)c1c(C)sc2nc(Cc3ccc(F)cc3C3CC3)cc(=O)n12 [Example 21.60, 7-[(2-cyclopropyl-4-fluoro-phenyl)methyl]-N,2-dimethyl-5-oxo-thiazolo[3,2-a]pyrimidine-3-carboxamide] | – | – | 78 |
| CC[C@@H](C)NC(=O)c1c(C)sc2nc(Cc3cccc(C(F)(F)F)c3F)cc(=O)n12 [compound 179, 7-[[2-fluoro-3-(trifluoromethyl)phenyl]methyl]-2-methyl-N-[(1R)-1-methylpropyl]-5-oxo-thiazolo[3,2-a]pyrimidine-3-carboxamide] | 0.698 | – | – |
| Cc1sc2nc(Oc3cccc(C(F)(F)F)c3F)cc(=O)n2c1C1CC1C#N (stereo not drawn) [compound 101, 2-[7-[2-fluoro-3-(trifluoromethyl)phenoxy]-2-methyl-5-oxo-thiazolo[3,2-a]pyrimidin-3-yl]cyclopropanecarbonitrile] | 3.71 | – | – |

Results, then the molecule that gave them:

| EC50 (Table 3) [µM] | EC50 (Table 2) [µM] | Max % (Table 2) [%] | SMILES |
| --- | --- | --- | --- |
| – | 0.515 | 152 | CCN(Cc1cc(=O)n2c(-c3ncco3)c(C)sc2n1)c1ccc(F)cc1 [Example 5.37, 7-[(N-ethyl-4-fluoro-anilino)methyl]-2-methyl-3-oxazol-2-yl-thiazolo[3,2-a]pyrimidin-5-one] |
| – | 15.5 | 75.4 | Cc1sc2nc(COc3ccc(F)cc3)cc(=O)n2c1CCCO [Example 4.30, 7-(4-Fluorophenoxymethyl)-3-(3-hydroxypropyl)-2-methyl-5H-[1,3]thiazolo[3,2-a]pyrimidin-5-one] |
| – | 1.9 | 149 | CCc1c(C)sc2nc(CN(CC)c3ccc(F)cc3)cc(=O)n12 [Example 5.40, 3-ethyl-7-((ethyl(4-fluorophenyl)amino)methyl)-2-methyl-5H-thiazolo[3,2-a]pyrimidin-5-one] |
| 0.175 | – | – | Cc1sc2nc(CN(C)c3ccc(F)cn3)cc(=O)n2c1C1CC1CO (stereo not drawn) [compound 182, 7-[[(5-fluoro-2-pyridyl)-methyl-amino]methyl]-3-[2-(hydroxymethyl)cyclopropyl]-2-methyl-thiazolo[3,2-a]pyrimidin-5-one] |
| – | 0.612 | 134 | CCN(Cc1cc(=O)n2c(C#N)c(C)sc2n1)c1cccc(F)c1 [Example 7.2, 7-((ethyl(3-fluorophenyl)amino)methyl)-2-methyl-5-oxo-5H-thiazolo[3,2-a]pyrimidine-3-carbonitrile] |
| – | – | 61.8 | CNC(=O)c1c(C2CC2)sc2nc(COc3ccc(F)cc3)cc(=O)n12 [Example 3.3, 2-Cyclopropyl-7-(4-fluorophenoxymethyl)-N-methyl-5-oxo-5H-[1,3]thiazolo[3,2-a]pyrimidine-3-carboxamide] |
| – | 7.5 | 111 | CCCCc1c(C)sc2nc(CN(CC)c3ccc(F)cc3)cc(=O)n12 [Example 5.14, 3-butyl-7-((ethyl(4-fluorophenyl)amino)methyl)-2-methyl-5H-thiazolo[3,2-a]pyrimidin-5-one] |
